According to PMC10065284, “Protease inhibition, in vitro antibacterial and IFD/MM-GBSA studies of ciprofloxacin-based acetanilides” (PLOS ONE, 2023):

Molecular target: T1, serine protease
T1 construct: purified serine protease, indigenously isolated from B. subtilis sp
Experiment: casein hydrolysis assay with purified protease, inhibition kinetics
Format: biochemical, Bacillus subtilis

Work on `COC(=O)c1cn(C2CC2)c2cc(N3CCN(CC(=O)Nc4ccccc4)CC3)c(F)cc2c1=O` [4a, methyl 1-cyclopropyl-6-fluoro-4-oxo-7-(4-(2-oxo-2-(phenylamino)ethyl)piperazin-1-yl)-1,4-dihydro-quinoline-3-carboxylate] yielded a Ki of 100 nM.
